In publication PMC6540285, “Evaluation of Protein Kinase Inhibitors with PLK4 Cross-Over Potential in a Pre-Clinical Model of Cancer” (International Journal of Molecular Sciences, 2019):

What was measured:
[1] = biological target: MAP2K1 (MEK1) S218D S222D (Homo sapiens, UniProt Q02750, S218D/S222D); experiment: SelectScreen kinase profiling, LanthaScreen binding
MAP3K2 (MEKK2) = MAP3K2 (MEKK2) (Homo sapiens, UniProt Q9Y2U5); experiment: as above
IRAK3 = IRAK3 (Homo sapiens, UniProt Q9Y616); experiment: as above; conditions: IRAK3, 10 µM
Chain of IRAK3 (Q9Y616 whole entry): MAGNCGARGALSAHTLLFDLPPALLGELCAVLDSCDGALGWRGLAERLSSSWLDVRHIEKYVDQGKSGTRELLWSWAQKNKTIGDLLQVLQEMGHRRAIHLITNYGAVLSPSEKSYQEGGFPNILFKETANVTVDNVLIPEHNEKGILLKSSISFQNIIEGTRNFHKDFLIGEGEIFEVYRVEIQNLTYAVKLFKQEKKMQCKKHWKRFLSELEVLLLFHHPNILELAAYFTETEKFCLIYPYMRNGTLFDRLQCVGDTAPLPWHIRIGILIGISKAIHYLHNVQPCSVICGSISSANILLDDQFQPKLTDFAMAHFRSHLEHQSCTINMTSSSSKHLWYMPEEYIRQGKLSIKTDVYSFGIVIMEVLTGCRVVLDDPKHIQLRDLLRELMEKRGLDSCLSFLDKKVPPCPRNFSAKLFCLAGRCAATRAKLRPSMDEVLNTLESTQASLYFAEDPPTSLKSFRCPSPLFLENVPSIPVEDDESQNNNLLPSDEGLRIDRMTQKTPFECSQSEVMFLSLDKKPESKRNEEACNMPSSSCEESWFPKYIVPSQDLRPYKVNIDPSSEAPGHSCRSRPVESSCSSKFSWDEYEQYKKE

PI4K2A (PI4K2 alpha) = PI4K2A (PI4K2 alpha) (Homo sapiens, UniProt Q9BTU6); experiment: SelectScreen kinase profiling, Adapta; assay type: biochemical
Chain of PI4K2A (PI4K2 alpha) (Q9BTU6 whole entry): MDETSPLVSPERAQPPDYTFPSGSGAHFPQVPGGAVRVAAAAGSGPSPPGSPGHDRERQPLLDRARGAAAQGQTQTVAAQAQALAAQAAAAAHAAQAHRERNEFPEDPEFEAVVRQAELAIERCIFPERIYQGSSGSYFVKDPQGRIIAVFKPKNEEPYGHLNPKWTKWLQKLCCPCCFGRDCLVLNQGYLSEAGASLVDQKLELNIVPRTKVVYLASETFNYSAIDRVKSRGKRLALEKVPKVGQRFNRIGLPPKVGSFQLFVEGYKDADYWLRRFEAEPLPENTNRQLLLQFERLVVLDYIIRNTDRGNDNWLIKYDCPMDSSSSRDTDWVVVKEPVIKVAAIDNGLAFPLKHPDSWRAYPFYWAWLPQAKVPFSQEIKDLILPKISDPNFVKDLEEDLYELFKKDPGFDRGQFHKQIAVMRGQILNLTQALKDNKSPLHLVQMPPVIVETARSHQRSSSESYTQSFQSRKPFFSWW

AMPK A1/B1/G1 = AMPK A1/B1/G1 (Homo sapiens, UniProt Q13131); experiment: SelectScreen kinase profiling, ZLYTE; assay type: biochemical; conditions: AMPK A1/B1/G1, 10 µM
PRKCG (PKC gamma) = PRKCG (PKC gamma) (Homo sapiens, UniProt P05129); experiment: SelectScreen kinase profiling, ZLYTE; assay type: biochemical
GRK4 = GRK4 (Homo sapiens, UniProt P32298); experiment: SelectScreen kinase profiling, ZLYTE; assay type: biochemical; conditions: GRK4, 10 µM
HCK = HCK (Homo sapiens, UniProt P08631); experiment: SelectScreen kinase profiling, ZLYTE; assay type: biochemical
PRKCQ (PKC theta) = PRKCQ (PKC theta) (Homo sapiens, UniProt Q04759); experiment: SelectScreen kinase profiling, ZLYTE; assay type: biochemical
RET S891A = RET S891A (Homo sapiens, UniProt P07949, S891A); experiment: SelectScreen kinase profiling, ZLYTE; assay type: biochemical
CDK9/cyclin K = CDK9/cyclin K (Homo sapiens, UniProt P50750); experiment: SelectScreen kinase profiling, LanthaScreen binding
Chain of CDK9/cyclin K (P50750 whole entry): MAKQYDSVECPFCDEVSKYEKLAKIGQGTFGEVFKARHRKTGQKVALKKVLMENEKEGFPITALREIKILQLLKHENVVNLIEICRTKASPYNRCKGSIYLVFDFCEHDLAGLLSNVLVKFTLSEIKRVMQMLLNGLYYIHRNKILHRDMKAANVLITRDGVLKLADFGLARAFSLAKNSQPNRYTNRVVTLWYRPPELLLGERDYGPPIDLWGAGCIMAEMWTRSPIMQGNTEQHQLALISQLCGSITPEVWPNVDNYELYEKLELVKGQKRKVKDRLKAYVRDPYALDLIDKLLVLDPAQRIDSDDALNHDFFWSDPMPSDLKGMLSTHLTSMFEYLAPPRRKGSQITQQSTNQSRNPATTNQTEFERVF
Chain of CDK9/cyclin K (O75909 whole entry partner): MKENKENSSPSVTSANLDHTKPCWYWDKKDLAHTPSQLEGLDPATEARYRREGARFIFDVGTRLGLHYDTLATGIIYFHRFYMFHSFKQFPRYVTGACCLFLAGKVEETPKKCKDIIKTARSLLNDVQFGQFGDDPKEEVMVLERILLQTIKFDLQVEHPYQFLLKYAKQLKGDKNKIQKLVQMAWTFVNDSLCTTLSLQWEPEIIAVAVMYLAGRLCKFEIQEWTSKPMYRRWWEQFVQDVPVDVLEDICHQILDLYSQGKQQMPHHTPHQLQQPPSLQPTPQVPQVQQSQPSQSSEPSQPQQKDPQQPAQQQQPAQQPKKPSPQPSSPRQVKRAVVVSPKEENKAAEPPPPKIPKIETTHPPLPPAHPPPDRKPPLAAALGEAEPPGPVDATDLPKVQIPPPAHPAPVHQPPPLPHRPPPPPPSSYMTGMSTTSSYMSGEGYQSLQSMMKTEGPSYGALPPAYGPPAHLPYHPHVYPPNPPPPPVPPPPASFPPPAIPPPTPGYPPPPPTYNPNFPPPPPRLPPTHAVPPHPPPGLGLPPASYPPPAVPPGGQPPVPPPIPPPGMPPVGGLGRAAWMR

PRKCD (PKC delta) = PRKCD (PKC delta) (Homo sapiens, UniProt Q05655); experiment: SelectScreen kinase profiling, ZLYTE; assay type: biochemical
EPHA3 = EPHA3 (Homo sapiens, UniProt P29320); experiment: SelectScreen kinase profiling, LanthaScreen binding; conditions: EPHA3, 10 µM
DYRK1B = DYRK1B (Homo sapiens, UniProt Q9Y463); experiment: SelectScreen kinase profiling, ZLYTE; assay type: biochemical
Chain of DYRK1B (Q9Y463 whole entry): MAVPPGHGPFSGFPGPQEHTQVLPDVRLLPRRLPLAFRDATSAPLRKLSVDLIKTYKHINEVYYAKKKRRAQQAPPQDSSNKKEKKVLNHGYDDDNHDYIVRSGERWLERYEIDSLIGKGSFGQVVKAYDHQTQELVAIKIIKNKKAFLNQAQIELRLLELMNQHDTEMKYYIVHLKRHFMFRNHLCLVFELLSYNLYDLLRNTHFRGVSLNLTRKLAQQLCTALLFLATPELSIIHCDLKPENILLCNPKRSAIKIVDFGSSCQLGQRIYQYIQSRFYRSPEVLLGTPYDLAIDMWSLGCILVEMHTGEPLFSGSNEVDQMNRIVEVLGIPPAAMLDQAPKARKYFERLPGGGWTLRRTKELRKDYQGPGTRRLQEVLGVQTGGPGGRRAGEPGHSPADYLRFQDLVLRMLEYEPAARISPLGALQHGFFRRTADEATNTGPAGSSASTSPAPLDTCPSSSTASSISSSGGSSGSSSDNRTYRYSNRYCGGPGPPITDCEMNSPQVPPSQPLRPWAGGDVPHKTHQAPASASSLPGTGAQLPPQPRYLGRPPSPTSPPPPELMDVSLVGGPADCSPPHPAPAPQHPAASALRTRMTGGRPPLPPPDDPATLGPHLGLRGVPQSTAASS

MAPK3 (ERK1) = MAPK3 (ERK1) (Homo sapiens, UniProt P27361); experiment: SelectScreen kinase profiling, ZLYTE; assay type: biochemical
Chain of MAPK3 (ERK1) (P27361 whole entry): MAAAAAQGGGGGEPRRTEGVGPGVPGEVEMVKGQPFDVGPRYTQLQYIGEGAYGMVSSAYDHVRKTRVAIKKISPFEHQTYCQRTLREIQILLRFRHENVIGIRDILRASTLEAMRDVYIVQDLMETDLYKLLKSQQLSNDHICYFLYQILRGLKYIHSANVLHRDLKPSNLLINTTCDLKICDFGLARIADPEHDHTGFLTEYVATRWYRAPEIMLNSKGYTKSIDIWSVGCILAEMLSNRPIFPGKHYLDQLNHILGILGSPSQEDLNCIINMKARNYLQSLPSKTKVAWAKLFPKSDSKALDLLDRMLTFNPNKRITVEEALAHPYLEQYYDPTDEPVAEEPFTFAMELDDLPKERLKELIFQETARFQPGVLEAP

EIF2AK2 (PKR) = EIF2AK2 (PKR) (Homo sapiens, UniProt P19525); experiment: SelectScreen kinase profiling, LanthaScreen binding
[2] = biological target: MAPK14 (p38 alpha) Direct (Homo sapiens, UniProt Q16539); experiment: SelectScreen kinase profiling, ZLYTE; assay type: biochemical
CASK = CASK (Homo sapiens, UniProt O14936); experiment: SelectScreen kinase profiling, LanthaScreen binding
PAK4 = PAK4 (Homo sapiens, UniProt O96013); experiment: SelectScreen kinase profiling, ZLYTE; assay type: biochemical; conditions: PAK4, 10 µM
P450 2J2 = P450 2J2 (Homo sapiens, UniProt P51589); experiment: SelectScreen P450 Vivid biochemical assay; conditions: 10000nM; substrate MOBFC
NIM1K = NIM1K (Homo sapiens, UniProt Q8IY84); experiment: SelectScreen kinase profiling, ZLYTE; assay type: biochemical
AURKA (Aurora A) = AURKA (Aurora A) (Homo sapiens, UniProt O14965); experiment: SelectScreen kinase profiling, ZLYTE; assay type: biochemical
ADCK3 = ADCK3 (Homo sapiens, UniProt Q8NI60); experiment: SelectScreen kinase profiling, LanthaScreen binding; conditions: ADCK3, 10 µM
Text: Kinase Technology % Inhibition Avg Kinase Technology % Inhibition Avg
STK23 (MSSK1) ZLYTE 59 TGFBR1 (ALK5) LanthaScreen 85
STK24 (MST3) ZLYTE 85 TGFBR2 LanthaScreen 77
STK25 (YSK1) ZLYTE 45 TLK1 LanthaScreen 4
STK3 (MST2) ZLYTE 77 TLK2 LanthaScreen 33
STK32B (YANK2) LanthaScreen 61 TNIK LanthaScreen 15
STK32C (YANK3) LanthaScreen 62 TNK1 ZLYTE 94
STK33 LanthaScreen 81 TNK2 (ACK) LanthaScreen 71
STK38 (NDR) LanthaScreen 85 TTK LanthaScreen 54
STK38L (NDR2) LanthaScreen 59 TXK ZLYTE 94
STK39 (STLK3) LanthaScreen 38 TYK2 ZLYTE 99
STK4 (MST1) ZLYTE 93 TYRO3 (RSE) ZLYTE 92
SYK ZLYTE 98 ULK1 LanthaScreen 80
TAOK1 LanthaScreen 82 ULK2 LanthaScreen 56
TAOK2 (TAO1) ZLYTE 87 ULK3 LanthaScreen 5
TAOK3 (JIK) LanthaScreen 25 VRK2 LanthaScreen 32
TBK1 ZLYTE 99 WEE1 LanthaScreen 75
TEC LanthaScreen -9 WNK1 LanthaScreen 2
TEK (Tie2) ZLYTE 99 WNK2 LanthaScreen 1
TEK (TIE2) R849W LanthaScreen -5 WNK3 LanthaScreen 7
TEK (TIE2) Y897S ZLYTE 80 ZAK LanthaScreen 77
TESK1 LanthaScreen 37 ZAP70 ZLYTE 24
cleavage (Thermo Fisher Scientific, USA)

CDK13/cyclin K = CDK13/cyclin K (Homo sapiens, UniProt Q14004); experiment: as above; conditions: read-out: % Inhibition Avg
EPHA6 = EPHA6 (Homo sapiens, UniProt Q9UF33); experiment: as above; conditions: EPHA6, 10 µM
HIPK4 = HIPK4 (Homo sapiens, UniProt Q8NE63); experiment: SelectScreen kinase profiling, ZLYTE; assay type: biochemical; conditions: HIPK4, 10 µM
[3] = biological target: PIK3CA/PIK3R1 (p110 alpha/p85 alpha) (Homo sapiens, UniProt P42336); experiment: SelectScreen kinase profiling, Adapta; assay type: biochemical; conditions: PIK3CA/PIK3R1, 10 µM
GSK3A (GSK3 alpha) = GSK3A (GSK3 alpha) (Homo sapiens, UniProt P49840); experiment: SelectScreen kinase profiling, ZLYTE; assay type: biochemical
BRSK2 = BRSK2 (Homo sapiens, UniProt Q8IWQ3); experiment: SelectScreen kinase profiling, LanthaScreen binding; conditions: BRSK2, 10 µM
MERTK (cMER) = MERTK (cMER) (Homo sapiens, UniProt Q12866); experiment: SelectScreen kinase profiling, ZLYTE; assay type: biochemical
DNA-PK = DNA-PK (Homo sapiens, UniProt P78527); experiment: SelectScreen kinase profiling, ZLYTE; assay type: biochemical

Chain of MAP2K1 (MEK1) S218D S222D (Q02750 whole entry S218D/S222D): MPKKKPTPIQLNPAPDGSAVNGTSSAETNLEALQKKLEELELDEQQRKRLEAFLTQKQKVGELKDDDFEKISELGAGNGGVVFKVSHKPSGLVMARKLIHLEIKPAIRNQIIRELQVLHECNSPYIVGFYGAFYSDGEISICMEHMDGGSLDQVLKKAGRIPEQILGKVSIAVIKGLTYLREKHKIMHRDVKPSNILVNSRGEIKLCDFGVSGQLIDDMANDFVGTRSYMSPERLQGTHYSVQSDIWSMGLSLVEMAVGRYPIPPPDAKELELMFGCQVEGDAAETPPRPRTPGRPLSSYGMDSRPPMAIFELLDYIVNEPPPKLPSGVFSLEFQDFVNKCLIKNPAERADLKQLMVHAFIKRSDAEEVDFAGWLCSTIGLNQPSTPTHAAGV
Chain of MAP3K2 (MEKK2) (Q9Y2U5 whole entry): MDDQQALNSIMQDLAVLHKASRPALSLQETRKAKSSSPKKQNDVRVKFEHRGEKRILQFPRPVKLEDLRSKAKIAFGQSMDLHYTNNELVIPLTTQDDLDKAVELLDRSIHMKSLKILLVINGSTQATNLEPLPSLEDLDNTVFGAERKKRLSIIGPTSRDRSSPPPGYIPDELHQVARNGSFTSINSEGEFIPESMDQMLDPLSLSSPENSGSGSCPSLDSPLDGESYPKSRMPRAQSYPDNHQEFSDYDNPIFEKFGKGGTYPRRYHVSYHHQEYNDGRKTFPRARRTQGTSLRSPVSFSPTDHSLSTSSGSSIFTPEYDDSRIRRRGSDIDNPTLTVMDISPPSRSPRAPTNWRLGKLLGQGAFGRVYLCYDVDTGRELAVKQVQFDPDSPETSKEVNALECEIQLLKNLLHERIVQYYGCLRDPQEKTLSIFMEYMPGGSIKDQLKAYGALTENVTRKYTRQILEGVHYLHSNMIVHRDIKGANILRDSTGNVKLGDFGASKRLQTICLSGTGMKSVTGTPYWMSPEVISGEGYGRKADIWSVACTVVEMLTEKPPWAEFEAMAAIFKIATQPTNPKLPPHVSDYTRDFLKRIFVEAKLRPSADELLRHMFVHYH

O=C(c1ccc(/C=C/c2n[nH]c3ccccc23)cc1)N1CCNCC1 [KW-2449]
inhibition at 10 µM [1]: 66% | inhibition at 10 µM (MAP3K2 (MEKK2)): 86% | inhibition at 10 µM (IRAK3): 31% | inhibition at 10 µM (PI4K2A (PI4K2 alpha)): 4% | inhibition at 10 µM (AMPK A1/B1/G1): 97% | inhibition at 10 µM (PRKCG (PKC gamma)): 81% | inhibition at 10 µM (GRK4): 61% | inhibition at 10 µM (HCK): 90% | inhibition at 10 µM (PRKCQ (PKC theta)): 32% | inhibition at 10 µM (RET S891A): 97% | inhibition at 10 µM (CDK9/cyclin K): 38% | inhibition at 10 µM (PRKCD (PKC delta)): 25% | inhibition at 10 µM (EPHA3): 61% | inhibition at 10 µM (DYRK1B): 91% | inhibition at 10 µM (MAPK3 (ERK1)): 41% | inhibition at 10 µM (EIF2AK2 (PKR)): 7% | inhibition at 10 µM [2]: 44% | inhibition at 10 µM (CASK): -63% | inhibition at 10 µM (PAK4): 94% | % Inhibition 2J2 MOBFC (P450 2J2): 96% | inhibition at 10 µM (NIM1K): 79% | inhibition at 10 µM (AURKA (Aurora A)): 98% | inhibition at 10 µM (ADCK3): -2% | inhibition at 10 µM (CDK13/cyclin K): 70% | inhibition at 10 µM (EPHA6): 73% | inhibition at 10 µM (HIPK4): 85% | inhibition at 10 µM [3]: 11% | inhibition at 10 µM (GSK3A (GSK3 alpha)): 63% | inhibition at 10 µM (BRSK2): 7% | inhibition at 10 µM (MERTK (cMER)): 93% | inhibition at 10 µM (DNA-PK): 24%
